Source: patent US20100075917A1, “THIONUCLEOSIDES AND PHARMACEUTICAL APPLICATIONS” (priority 2006, published 2010)

Experiments:
Format in all cases: cell-based
human CEM cells = test: Cytotoxicity (MTT) on CEM cells; conditions: Homo sapiens, CCRF-CEM; for CC50: read-out: CC50 CEM; for EC50: Tables 4 and 6, CEM cells, some values 'then plateau'
Method: The cytotoxic effect of a compound is studied on human CEM cells and MCF-7 mammary carcinoma cells that are or are not resistant to gemcitabine, which is an anticancer nucleoside used in chemotherapy.
The cytotoxicity (CC50) was estimated by measuring the reduction of 3-(4,5-dimethylthiazol-2-yl)-2,5-diphenyltetrazolium bromide (MTT), which is converted into insoluble violet formazan. To do this, 100 000 cells (human CEM-SS or MCF-7 lines) are inoculated per well in 100 μl of culture medium, in 96-well microtitration plates. After 24 hours, the test products are added in 100 μl and incubation is continued for 48 to 72 hours. MIT is then added in a proportion of 20 μl of a solution at 5 mg/ml in PBS. Three hours later, 100 μl of a DMF/acetic acid/HCl/SDS (sodium dodecyl sulfate) solution are added. After 3 hours at 37° C., the absorbance of the formazan is measured at 590 nm and compared with that of the untreated control.

[1] = system: L1210/0 murine leukemia cells; test: Cytotoxic effect on L1210/0 cells; conditions: Tables 5 and 7, L1210/0 cells
[2] = system: FM3A/0 murine mammary carcinoma cells; test: Cytotoxic effect on FM3A/0 cells; parameters: unit not given beside the values; conditions: Tables 5 and 7, FM3A/0 cells
human Molt4/C8 cells = test: Cytotoxic effect on Molt4/C8 cells; conditions: Tables 5 and 7, Molt4/C8 cells
human CEM T4 lymphocytes = test: Cytotoxic effect on CEM T4 lymphocytes; parameters: unit not given beside the values; conditions: Tables 5 and 7, CEM cells
HeLa cells = test: Cytotoxic effect on HeLa cells; parameters: unit not given beside the values; conditions: Tables 5 and 7, HeLa cells
Moloney sarcoma virus = test: Inhibition of transformation of mouse embryo C3H/3T3 cells induced by Moloney sarcoma virus; parameters: MIC (minimum inhibitory concentration): unit not given here; conditions: for MIC (minimum inhibitory concentration): C3H/3T3 cells, a second bound is given in brackets for some compounds; for EC50: transformation of C3H/3T3 cells induced by Moloney sarcoma virus, read-out: EC50 (effective concentration 50%)
From the text: 2.2. Inhibitory Effect on the Transformation of Mouse Embryo C3H/3T3 Cells Induced by Moloney Sarcoma Virus (Model of Infection with HIV)

HIV-1 = test: Anti-HIV-1 effect in CEM cells; conditions: First and Second Series, first table, read-out: EC50 HIV-1
Method: (§1) The evaluation test is described in Roy, B.; Chambert, S.; Lepoivre M.; Aubertin, A.-M.; Balzarini, J.; Décout, J.-L., Deoxyribonucleoside 2′- or 3′-mixed disulfides: prodrugs to target ribonucleotide reductase and/or to inhibit HIV reverse transcription. J. Med. Chem. 2003, 46, 2565-2568.
(§2) The toxicity and the antiviral activities were measured at different concentrations, and their evolution as a function of the concentration makes it possible to evaluate: • the concentration at which 50% of the cells are dead in the absence of virus (CC 50) for each of the test compounds, from the change in absorbance at 540 nm of formazan as a function of the concentration of test compound, • the concentration of compound that leads to a 50% reduction in the activity of viral reverse transcriptase (EC 50). This concentration is determined from the curve representing the change in the percentage of “remaining reverse transcriptase” activity (defined as being the ratio of the activity of the reverse transcriptase in the presence of the test compound to that of the untreated cells) as a function of the concentration of test compound.
(§3) EC50: concentration required to afford 50% protection to the CEM cells against the cytopathogenicity of HIV;

HIV-2 = test: Anti-HIV-2 effect in CEM cells; conditions: First and Second Series, first table; CEM cells; read-out: EC50 HIV-2
Method: as §1, §2, §3

Row | Compound | cytotoxic effect, L1210/0 [1] | cytotoxic effect, FM3A/0 [2] | cytotoxic effect, Molt4/C8 (human Molt4/C8 cells) | cytotoxic effect, CEM (human CEM T4 lymphocytes) | cytotoxic effect, HeLa (HeLa cells) | MIC (minimum inhibitory concentration) (Moloney sarcoma virus) | EC50 (Moloney sarcoma virus) [µM] | further results
1 | Cc1cn([C@@H]2O[C@H](CO)C=C2[S+]([O-])CC[Si](C)(C)C)c(=O)[nH]c1=O (some centres unmarked) [Compound 6, 2′,3′-Didehydro-2′,3′-dideoxy-2′-(2-trimethylsilyl)ethylthiothymidine sulfoxide] |  |  |  |  |  |  |  | CC50 (human CEM cells): > 200 µM
2 | C[Si](C)(C)CC[S+]([O-])C1=C[C@@H](CO)O[C@H]1n1ccc(=O)[nH]c1=O (some centres unmarked) [Compound 8, 2′,3′-Didehydro-2′,3′-dideoxy-2′-(2-trimethylsilyl)ethylthiouridine sulfoxide] |  |  |  |  |  |  |  | CC50 (human CEM cells): > 200 µM
3 | Cc1cn([C@@H]2O[C@H](CO)C=C2SSc2ccccc2[N+](=O)[O-])c(=O)[nH]c1=O [Compound 11] |  |  |  |  |  |  |  | EC50 (human CEM cells): > 200 µM
4 | Cc1cn([C@@H]2O[C@H](CO)C=C2SSC(Cl)(Cl)Cl)c(=O)[nH]c1=O [Compound 12, 2′,3′-didehydro-2′,3′-dideoxythymidin-2′-yl trichloromethyl disulfide] |  |  |  |  |  |  |  | EC50 (human CEM cells): 46 µM
5 | Cc1cn(C2OC(CO)C=C2SSc2ccc([N+](=O)[O-])cc2)c(=O)[nH]c1=O (centres unmarked) [Compound 14, 2′,3′-didehydro-2′,3′-dideoxythymidin-2′-yl 4-nitrophenyl disulfide] | 31 ± 3 | 39 ± 3 | 12 ± 5 | 31 ± 1 | 7.4 ± 1.6 | 100 | 15 | 
6 | Cc1cn(C2OC(CO)C=C2SSc2ccccc2[N+](=O)[O-])c(=O)[nH]c1=O (centres unmarked) [Compound 15, 2′,3′-didehydro-2′,3′-dideoxythymidin-2′-yl 2-nitrophenyl disulfide] | 42 ± 3 | 175 ± 30 | 30 ± 15 | 28 ± 0 | 31 ± 1 | 100 | 8.3 ± 0.4 | 
7 | CSS[C@H]1C[C@H](n2cc(Br)c(=O)[nH]c2=O)O[C@@H]1CO [Compound 23, 5-Bromo-2′,3′-dideoxyuridin-3′-yl methyl disulfide] |  |  |  |  |  |  |  | EC50 (human CEM cells): 66 µM
8 | Cc1cn([C@H]2C[C@H](SSc3ccc([N+](=O)[O-])cc3)[C@@H](CO)O2)c(=O)[nH]c1=O [Compound 25, 3′-deoxythymidin-3′-yl 4-nitrophenyl disulfide] | 32 ± 3 | 148 ± 16 | 29 ± 2 | 34 ± 0 | 28 ± 12 | 20 | 0.89 ± 0.36 | 
9 | Cc1cn([C@H]2C[C@H](SSc3ccccc3[N+](=O)[O-])[C@@H](CO)O2)c(=O)[nH]c1=O [Compound 26, 3′-deoxythymidin-3′-yl 2-nitrophenyl disulfide] | 33 ± 7 | 220 ± 19 | 31 ± 5 | 32 ± 1 | 15 ± 0 | 20 | 1.1 ± 0.8 | 
10 | Nc1ncnc2c1ncn2CCOCP(=O)(O)O [PMEA, reference compound] |  |  |  |  |  |  | 0.53 ± 0.13 | 
11 | C[C@H](Cn1cnc2c(N)ncnc21)OCP(=O)(O)O [Tenofovir, reference compound] |  |  |  |  |  |  |  | EC50 (HIV-1): 5.5 µM; EC50 (HIV-2): 2.6 µM
12 | (R)-PMEA [reference compound] |  |  |  |  |  | >10 | 0.23 ± 0.03 | 
